ChEMBL document CHEMBL4507268 (2021)

Columns and labels:
SNU-449 = experiment: Proliferation assay: SNU-449 (hepatocellular carcinoma); format: functional, cell-based; conditions: Homo sapiens
[1] = biological target: Peripheral plasma membrane protein CASK (Homo sapiens) (UniProt O14936); conditions: Compound concentration 1000.0 nM
[2] = biological target: T1, Receptor-interacting serine/threonine-protein kinase 1 (Homo sapiens) (UniProt Q13546); conditions: Compound concentration 1000.0 nM
T1 sequence (whole entry): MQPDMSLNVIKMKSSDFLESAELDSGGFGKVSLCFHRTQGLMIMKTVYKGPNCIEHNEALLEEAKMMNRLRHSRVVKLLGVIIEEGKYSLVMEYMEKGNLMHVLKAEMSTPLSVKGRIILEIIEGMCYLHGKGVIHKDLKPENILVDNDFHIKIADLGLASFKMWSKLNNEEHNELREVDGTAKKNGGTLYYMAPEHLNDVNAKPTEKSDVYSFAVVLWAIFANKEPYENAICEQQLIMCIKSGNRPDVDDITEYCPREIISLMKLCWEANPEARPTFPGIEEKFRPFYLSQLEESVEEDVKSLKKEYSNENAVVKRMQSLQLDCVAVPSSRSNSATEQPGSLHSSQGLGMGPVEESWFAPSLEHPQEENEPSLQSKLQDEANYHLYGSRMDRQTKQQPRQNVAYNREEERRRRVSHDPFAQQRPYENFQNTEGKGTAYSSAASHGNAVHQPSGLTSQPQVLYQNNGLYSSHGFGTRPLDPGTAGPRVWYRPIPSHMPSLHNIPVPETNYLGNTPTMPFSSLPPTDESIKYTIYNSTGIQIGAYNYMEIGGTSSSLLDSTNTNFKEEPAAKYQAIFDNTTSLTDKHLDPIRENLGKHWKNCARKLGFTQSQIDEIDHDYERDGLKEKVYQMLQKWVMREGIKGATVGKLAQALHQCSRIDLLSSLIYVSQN

[3] = biological target: Uncharacterized serine/threonine-protein kinase SBK3 (Homo sapiens) (UniProt P0C264); conditions: Compound concentration 1000.0 nM
[4] = biological target: Calcium/calmodulin-dependent protein kinase type 1 (Homo sapiens) (UniProt Q14012); conditions: Compound concentration 1000.0 nM
[5] = biological target: Bone morphogenetic protein receptor type-1A (Homo sapiens) (UniProt P36894); conditions: Compound concentration 1000.0 nM
[6] = biological target: T2, Bone morphogenetic protein receptor type-2 (Homo sapiens) (UniProt Q13873); conditions: Compound concentration 1000.0 nM
T2 sequence (whole entry): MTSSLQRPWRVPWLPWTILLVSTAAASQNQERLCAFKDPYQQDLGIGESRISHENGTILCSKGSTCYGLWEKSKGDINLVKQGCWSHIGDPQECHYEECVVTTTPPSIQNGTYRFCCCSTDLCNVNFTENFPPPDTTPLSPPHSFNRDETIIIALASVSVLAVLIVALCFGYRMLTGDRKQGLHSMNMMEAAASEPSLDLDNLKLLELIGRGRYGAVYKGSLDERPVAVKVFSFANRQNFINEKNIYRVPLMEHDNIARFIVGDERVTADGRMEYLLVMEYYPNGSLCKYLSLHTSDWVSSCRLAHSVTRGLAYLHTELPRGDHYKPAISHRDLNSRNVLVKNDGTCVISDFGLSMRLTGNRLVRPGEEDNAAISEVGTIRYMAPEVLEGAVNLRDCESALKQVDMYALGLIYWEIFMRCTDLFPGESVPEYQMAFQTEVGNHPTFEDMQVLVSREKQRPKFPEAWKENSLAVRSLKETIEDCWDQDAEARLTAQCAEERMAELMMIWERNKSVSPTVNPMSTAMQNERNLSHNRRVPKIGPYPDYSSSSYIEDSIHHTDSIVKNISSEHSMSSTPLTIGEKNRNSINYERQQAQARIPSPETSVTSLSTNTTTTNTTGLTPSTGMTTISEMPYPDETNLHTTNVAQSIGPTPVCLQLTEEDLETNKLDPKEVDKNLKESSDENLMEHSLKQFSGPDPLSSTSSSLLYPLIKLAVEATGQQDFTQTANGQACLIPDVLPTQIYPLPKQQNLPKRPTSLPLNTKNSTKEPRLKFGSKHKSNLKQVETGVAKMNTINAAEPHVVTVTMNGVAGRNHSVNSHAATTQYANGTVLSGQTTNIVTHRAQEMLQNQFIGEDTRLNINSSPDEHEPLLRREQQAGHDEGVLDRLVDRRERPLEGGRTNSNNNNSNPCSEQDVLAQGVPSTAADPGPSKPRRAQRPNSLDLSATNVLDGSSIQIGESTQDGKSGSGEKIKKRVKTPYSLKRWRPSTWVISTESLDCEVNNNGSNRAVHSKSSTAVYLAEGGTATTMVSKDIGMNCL

[7] = biological target: Dual specificity mitogen-activated protein kinase kinase 2 (Homo sapiens) (UniProt P36507); conditions: Compound concentration 1000.0 nM
[8] = biological target: 3-phosphoinositide-dependent protein kinase 1 (Homo sapiens) (UniProt O15530); conditions: Compound concentration 1000.0 nM
[9] = biological target: BMP-2-inducible protein kinase (Homo sapiens) (UniProt Q9NSY1); conditions: Compound concentration 1000.0 nM
[10] = biological target: T3, Calcium/calmodulin-dependent protein kinase type IV (Homo sapiens) (UniProt Q16566); conditions: Compound concentration 1000.0 nM
T3 sequence (whole entry): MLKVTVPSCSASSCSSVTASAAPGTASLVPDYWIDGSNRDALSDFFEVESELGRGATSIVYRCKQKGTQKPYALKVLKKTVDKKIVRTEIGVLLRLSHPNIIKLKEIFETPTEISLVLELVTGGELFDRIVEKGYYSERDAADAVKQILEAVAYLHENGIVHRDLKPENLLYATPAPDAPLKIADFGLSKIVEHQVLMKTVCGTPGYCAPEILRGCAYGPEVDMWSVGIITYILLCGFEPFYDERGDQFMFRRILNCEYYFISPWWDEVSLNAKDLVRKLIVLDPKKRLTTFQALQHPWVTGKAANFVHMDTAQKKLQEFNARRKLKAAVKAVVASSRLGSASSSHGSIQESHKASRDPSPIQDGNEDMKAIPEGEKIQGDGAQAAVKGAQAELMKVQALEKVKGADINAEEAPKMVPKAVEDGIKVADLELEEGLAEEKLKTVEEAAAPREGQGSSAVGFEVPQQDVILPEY

[11] = biological target: Serine/threonine-protein kinase pim-2 (Homo sapiens) (UniProt Q9P1W9); conditions: Compound concentration 1000.0 nM
[12] = biological target: Mitogen-activated protein kinase kinase kinase 15 (Homo sapiens) (UniProt Q6ZN16); conditions: Compound concentration 1000.0 nM
[13] = system: Hepatocyte growth factor receptor (Homo sapiens), P08581 [Y1235D]; conditions: Compound concentration 1000.0 nM
[14] = biological target: Serine/threonine-protein kinase ULK1 (Homo sapiens) (UniProt O75385); conditions: Compound concentration 1000.0 nM
[15] = biological target: Wee1-like protein kinase (Homo sapiens) (UniProt P30291); conditions: Compound concentration 1000.0 nM

Chain of Serine/threonine-protein kinase pim-2 (Homo sapiens) (Q9P1W9 whole entry, looked up): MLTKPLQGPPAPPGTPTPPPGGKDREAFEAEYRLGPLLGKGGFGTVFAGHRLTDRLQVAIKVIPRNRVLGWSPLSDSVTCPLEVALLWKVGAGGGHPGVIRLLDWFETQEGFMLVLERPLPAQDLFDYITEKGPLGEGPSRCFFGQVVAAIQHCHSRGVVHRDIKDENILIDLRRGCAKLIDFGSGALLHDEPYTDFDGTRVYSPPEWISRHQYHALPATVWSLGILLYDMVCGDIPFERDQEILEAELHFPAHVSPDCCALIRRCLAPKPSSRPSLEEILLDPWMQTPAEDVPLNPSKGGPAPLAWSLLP
Chain of Dual specificity mitogen-activated protein kinase kinase 2 (Homo sapiens) (P36507 whole entry): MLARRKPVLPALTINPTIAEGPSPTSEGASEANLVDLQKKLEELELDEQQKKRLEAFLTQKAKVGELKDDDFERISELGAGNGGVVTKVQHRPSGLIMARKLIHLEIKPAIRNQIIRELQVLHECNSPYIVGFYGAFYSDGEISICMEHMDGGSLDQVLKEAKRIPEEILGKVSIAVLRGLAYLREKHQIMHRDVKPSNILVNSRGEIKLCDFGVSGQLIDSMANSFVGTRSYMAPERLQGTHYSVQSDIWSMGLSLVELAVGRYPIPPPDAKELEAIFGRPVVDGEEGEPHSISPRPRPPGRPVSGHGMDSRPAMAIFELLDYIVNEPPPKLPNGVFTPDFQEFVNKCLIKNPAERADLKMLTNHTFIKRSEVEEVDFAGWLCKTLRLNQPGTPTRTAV
Chain of BMP-2-inducible protein kinase (Homo sapiens) (Q9NSY1 whole entry, looked up): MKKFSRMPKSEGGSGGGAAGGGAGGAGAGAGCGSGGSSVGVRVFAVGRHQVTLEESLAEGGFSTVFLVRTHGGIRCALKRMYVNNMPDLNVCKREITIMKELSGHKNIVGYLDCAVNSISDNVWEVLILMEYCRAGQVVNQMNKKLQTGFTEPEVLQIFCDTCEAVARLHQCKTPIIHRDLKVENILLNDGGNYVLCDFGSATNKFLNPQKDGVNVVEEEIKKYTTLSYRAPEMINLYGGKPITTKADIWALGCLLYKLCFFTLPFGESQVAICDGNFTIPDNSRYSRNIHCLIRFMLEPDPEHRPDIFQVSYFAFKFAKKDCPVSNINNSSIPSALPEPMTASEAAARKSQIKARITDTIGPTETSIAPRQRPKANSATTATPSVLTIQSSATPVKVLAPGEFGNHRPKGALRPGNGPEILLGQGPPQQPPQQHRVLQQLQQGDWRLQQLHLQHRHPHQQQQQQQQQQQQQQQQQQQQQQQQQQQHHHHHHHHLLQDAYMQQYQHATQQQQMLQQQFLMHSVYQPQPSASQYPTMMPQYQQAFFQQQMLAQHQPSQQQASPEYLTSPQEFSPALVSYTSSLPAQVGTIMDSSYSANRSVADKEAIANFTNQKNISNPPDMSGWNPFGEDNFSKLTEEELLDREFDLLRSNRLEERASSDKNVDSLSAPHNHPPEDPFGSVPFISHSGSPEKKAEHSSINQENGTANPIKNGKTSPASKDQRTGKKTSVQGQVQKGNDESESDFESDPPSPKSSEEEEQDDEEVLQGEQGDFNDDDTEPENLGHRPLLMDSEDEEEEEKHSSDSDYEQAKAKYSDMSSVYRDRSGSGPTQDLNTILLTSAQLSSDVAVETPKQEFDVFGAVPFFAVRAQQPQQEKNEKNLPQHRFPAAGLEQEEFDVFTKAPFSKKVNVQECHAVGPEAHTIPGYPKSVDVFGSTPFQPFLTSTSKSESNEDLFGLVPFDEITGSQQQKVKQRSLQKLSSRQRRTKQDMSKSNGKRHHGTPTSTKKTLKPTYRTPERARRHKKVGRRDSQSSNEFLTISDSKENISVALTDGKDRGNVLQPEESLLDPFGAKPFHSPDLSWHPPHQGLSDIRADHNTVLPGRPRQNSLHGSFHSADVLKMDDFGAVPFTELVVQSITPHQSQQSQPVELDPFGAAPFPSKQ
Chain of Peripheral plasma membrane protein CASK (Homo sapiens) (O14936 whole entry): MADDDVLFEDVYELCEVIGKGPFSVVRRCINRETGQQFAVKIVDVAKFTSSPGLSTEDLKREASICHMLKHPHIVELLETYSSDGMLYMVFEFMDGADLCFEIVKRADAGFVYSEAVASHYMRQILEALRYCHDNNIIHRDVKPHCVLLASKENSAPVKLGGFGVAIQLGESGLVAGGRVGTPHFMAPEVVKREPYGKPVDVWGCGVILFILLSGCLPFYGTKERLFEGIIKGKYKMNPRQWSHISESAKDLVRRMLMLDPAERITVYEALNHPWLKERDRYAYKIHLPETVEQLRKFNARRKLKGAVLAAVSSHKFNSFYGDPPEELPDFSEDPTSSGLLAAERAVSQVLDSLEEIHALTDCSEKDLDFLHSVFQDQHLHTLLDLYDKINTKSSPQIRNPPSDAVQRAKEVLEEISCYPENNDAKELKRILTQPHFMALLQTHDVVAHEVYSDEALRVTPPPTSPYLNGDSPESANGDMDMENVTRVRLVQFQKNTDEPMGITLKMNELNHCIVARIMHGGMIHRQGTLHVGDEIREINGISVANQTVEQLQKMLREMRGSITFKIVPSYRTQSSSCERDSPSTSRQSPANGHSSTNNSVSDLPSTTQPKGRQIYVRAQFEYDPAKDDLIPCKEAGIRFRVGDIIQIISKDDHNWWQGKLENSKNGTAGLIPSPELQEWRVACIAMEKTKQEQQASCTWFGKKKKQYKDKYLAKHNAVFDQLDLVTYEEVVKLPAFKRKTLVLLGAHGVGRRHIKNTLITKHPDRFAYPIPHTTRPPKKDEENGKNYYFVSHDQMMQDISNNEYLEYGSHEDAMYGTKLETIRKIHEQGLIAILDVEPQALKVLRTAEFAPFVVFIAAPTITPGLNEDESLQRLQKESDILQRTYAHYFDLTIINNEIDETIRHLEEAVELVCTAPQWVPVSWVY
Chain of Uncharacterized serine/threonine-protein kinase SBK3 (Homo sapiens) (P0C264 whole entry): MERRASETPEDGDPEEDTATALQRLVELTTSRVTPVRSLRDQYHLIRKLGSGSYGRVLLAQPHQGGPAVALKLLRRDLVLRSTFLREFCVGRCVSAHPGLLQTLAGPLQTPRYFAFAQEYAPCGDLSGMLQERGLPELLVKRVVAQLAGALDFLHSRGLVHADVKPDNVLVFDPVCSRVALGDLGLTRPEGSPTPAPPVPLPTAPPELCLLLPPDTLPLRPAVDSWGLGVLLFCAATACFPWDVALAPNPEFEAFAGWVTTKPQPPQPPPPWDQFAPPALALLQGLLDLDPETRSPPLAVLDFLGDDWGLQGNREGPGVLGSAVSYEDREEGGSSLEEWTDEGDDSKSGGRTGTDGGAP
Chain of Serine/threonine-protein kinase ULK1 (Homo sapiens) (O75385 whole entry): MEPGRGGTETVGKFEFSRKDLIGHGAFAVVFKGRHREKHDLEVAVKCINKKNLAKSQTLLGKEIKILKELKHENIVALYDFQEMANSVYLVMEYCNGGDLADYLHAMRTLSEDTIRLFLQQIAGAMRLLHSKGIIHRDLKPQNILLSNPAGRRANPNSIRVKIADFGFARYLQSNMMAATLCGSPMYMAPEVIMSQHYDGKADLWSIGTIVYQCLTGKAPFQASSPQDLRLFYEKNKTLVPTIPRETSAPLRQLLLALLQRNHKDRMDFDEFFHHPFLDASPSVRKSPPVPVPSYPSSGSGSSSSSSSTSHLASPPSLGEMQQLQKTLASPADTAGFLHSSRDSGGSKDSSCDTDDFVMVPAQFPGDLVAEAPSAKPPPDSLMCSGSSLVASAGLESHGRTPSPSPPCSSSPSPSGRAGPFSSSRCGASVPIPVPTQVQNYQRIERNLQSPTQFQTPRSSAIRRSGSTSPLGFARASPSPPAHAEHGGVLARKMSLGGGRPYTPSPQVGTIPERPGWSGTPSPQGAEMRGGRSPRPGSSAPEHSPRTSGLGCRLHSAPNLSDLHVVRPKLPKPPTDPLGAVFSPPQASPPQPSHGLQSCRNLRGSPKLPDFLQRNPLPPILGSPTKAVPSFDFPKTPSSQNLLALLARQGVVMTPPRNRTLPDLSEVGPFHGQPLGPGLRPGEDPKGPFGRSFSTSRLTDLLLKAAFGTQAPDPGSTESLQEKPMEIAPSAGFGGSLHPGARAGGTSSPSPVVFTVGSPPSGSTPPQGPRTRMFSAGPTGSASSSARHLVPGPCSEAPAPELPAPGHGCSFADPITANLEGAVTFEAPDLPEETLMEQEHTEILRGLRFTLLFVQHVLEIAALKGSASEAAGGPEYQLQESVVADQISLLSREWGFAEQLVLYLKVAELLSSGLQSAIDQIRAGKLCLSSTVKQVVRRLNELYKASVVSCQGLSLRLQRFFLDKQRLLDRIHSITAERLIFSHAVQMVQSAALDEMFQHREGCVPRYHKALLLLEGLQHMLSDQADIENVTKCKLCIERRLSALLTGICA
Chain of 3-phosphoinositide-dependent protein kinase 1 (Homo sapiens) (O15530 whole entry): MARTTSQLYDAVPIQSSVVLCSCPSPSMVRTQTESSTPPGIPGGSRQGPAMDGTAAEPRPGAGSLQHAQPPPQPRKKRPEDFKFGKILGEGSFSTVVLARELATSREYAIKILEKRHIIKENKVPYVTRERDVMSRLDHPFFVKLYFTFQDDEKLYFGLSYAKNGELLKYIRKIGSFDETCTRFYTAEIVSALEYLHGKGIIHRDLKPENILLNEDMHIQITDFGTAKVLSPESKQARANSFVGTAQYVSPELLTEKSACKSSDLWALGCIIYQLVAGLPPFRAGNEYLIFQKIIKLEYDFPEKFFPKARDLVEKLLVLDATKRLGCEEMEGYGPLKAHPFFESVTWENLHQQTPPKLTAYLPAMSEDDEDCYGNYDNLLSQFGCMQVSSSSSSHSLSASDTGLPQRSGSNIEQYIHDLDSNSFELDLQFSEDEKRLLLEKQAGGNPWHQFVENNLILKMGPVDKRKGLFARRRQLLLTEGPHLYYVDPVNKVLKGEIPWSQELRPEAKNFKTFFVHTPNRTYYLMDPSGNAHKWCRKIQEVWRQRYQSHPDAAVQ

Question: Which IC50 (SNU-449) does the source give for `Cc1nc(C2CCN(C(=O)c3ccc(OC(F)(F)F)cc3N)CC2)c2ncc(N3CCN(C)CC3)cc2n1` [BAY-693] here?
Answer: Its IC50 is 19.5 µM (not active).

Question: And the residual activity [1]?
Answer: The residual activity was 87%.

Question: And the residual activity [2]?
Answer: Its residual activity is 98%.

Question: What about the residual activity [3] of the same compound?
Answer: Its residual activity is 77%.

Question: What about the residual activity [4] of the same compound?
Answer: Its residual activity is 100%.

Question: And the residual activity [5]?
Answer: Its residual activity is 80%.

Question: And the residual activity [6]?
Answer: Its residual activity is 100%.

Question: And the residual activity [7]?
Answer: The residual activity was 100%.

Question: What about the residual activity [8] of the same compound?
Answer: Its residual activity is 93%.

Question: What about the residual activity [9] of the same compound?
Answer: The residual activity was 100%.

Question: What about the residual activity [10] of the same compound?
Answer: The residual activity was 95%.

Question: And the residual activity [11]?
Answer: The residual activity was 100%.

Question: What about the residual activity [12] of the same compound?
Answer: The residual activity was 92%.

Question: And the residual activity [13]?
Answer: Its residual activity is 98%.

Question: And the residual activity [14]?
Answer: The residual activity was 49%.

Question: What about the residual activity [15] of the same compound?
Answer: Its residual activity is 94%.

Question: With `CN1CCN(c2cnc3c(C4CCN(C(=O)c5ccc(OC(F)(F)F)cc5N)CC4)ncnc3c2)CC1` [BAY-885] as the compound, how does the IC50 (SNU-449) read?
Answer: The IC50 was > 30 µM (not active).

Question: What about the residual activity [1] of the same compound?
Answer: Its residual activity is 89%.

Question: What about the residual activity [2] of the same compound?
Answer: The residual activity was 100%.

Question: And the residual activity [3]?
Answer: The residual activity was 72%.

Question: And the residual activity [4]?
Answer: Its residual activity is 100%.

Question: And the residual activity [5]?
Answer: The residual activity was 79%.

Question: What about the residual activity [6] of the same compound?
Answer: Its residual activity is 100%.

Question: And the residual activity [7]?
Answer: Its residual activity is 100%.

Question: And the residual activity [8]?
Answer: The residual activity was 85%.

Question: And the residual activity [9]?
Answer: Its residual activity is 97%.

Question: And the residual activity [10]?
Answer: The residual activity was 94%.

Question: What about the residual activity [11] of the same compound?
Answer: Its residual activity is 100%.

Question: What about the residual activity [12] of the same compound?
Answer: The residual activity was 95%.

Question: What about the residual activity [13] of the same compound?
Answer: Its residual activity is 73%.

Question: What about the residual activity [14] of the same compound?
Answer: Its residual activity is 100%.

Question: What about the residual activity [15] of the same compound?
Answer: The residual activity was 96%.
